Source: patent US20140288110A1, “PPAR MODULATORS” (EVOLVA SA, priority 2006, published 2014)

Assays:
3T3-L1 / MEFs = assay: Adipocyte differentiation assay, induction, Oil Red O staining; type: cell-based, mouse; design: key to Adip.: 0: representing similar results to DPD; −1: representing even less adipocyte differentiation; +1: representing more adipocyte differentiation (both relative to DPD); conditions: for Adip.: adipocyte differentiation relative to DPD (SN1), Oil Red O staining; for induction of adipocyte differentiation (red staining), in words: induction assay, Oil Red O
Protocol: This example describes an assay for determining adipocyte differention. Compounds are tested to see whether they induce adipocyte differentiation and also to see whether they inhibit adipocyte differention.
MEFs were grown in AmnioMax basal medium (Gibco) supplemented with 7.5% Amniomax supplement C-100 (Gibco), 7.5% Fetal Bovine Serum (FBS), 2 mM Glutamine, 62.5 μg/ml penicillin and 100 μg/ml Streptomycin (growth medium). At confluence, MEFs were induced to differentiation in growth medium with the addition of 1 microM dexamethasone (Sigma) 0.5 mM isobutylmethylxanthine (Sigma), 5 microg/ml insulin (Sigma) and 10 microM test compound dissolved in DMSO or DMSO alone. Medium was subsequently renewed every 48 hrs with growth media supplemented with 5 microg/ml Insulin and ligand or DMSO.
Briefly, to test compounds as inducers of adipocyte differentiation, 3T3-L1 are grown to confluence in DMEM with 10% Calf serum (CS), typically in 24 well dishes. At 2 days post confluence (day 0), cells are induced to differentiate with DMEM supplemented with 10% fetal bovine serum (FBS), 1 μM dexamethasone and the test compound ([…], 1 and 10 microM). BRL49653 (1.0 μM dissolved in 100% Me2SO) is used as a positive control. After 48 h, the cells are re-fed with DMEM containing 10% FBS supplemented with the test compound or the positive control. From day 4, cells are grown in DMEM with 10% FBS and are changed every second day until day 8. At day 8, cells are stained with Oil Red O as described below.
Cells cultured as described above are used for Oil Red staining. Dishes are washed in PBS and cells were fixed in 3.7% paraformaldehyde for 1 h and stained with oil red O as described in (Hansen et al 1999). Oil red O solution stock solution is prepared by dissolving 0.5 g of Oil Red O (Sigma) in 100 ml of isopropanol. Oil re O working solution is prepared by diluting a stock solution with water (6:4) followed by filtration.
Table II summarizes results obtained with different analogs of DPD (SN1), “0” representing similar results to DPD, “−1” representing even less adipocyte differentiation, “+1” representing more adipocyte differentiation (both relative to DPD) and “−” meaning not assayed.

[1] = tested on: PPARgamma ligand-binding domain (Gal4-PPARgammaLBD); assay: PPARgamma transactivation assay (Gal4-PPARgammaLBD, UASx4-TK luc reporter); type: cell-based; conditions: for PPAR: PPARgamma activating activity compared with 10 microM DPD (SN1)
Excerpt: This is an example of a transactivation assay for determining PPAR gamma modulating activity.
The UASx4-TK-luc reporter construct (where UAS refers to “upstream activator sequence”) contains four Gal4-responsive elements. The plasmid Gal4-PPARgammaLBD encodes a Gal4-DBD-PPARgamma-LBD fusion protein (i.e. the DNA-binding domain, DBD, of Gal4 fused to the ligand-binding domain, LBD, of PPARgamma) capable of transactivating the UASx4-TK-luc reporter plasmid by binding to the UAS. The CMV-beta-galactosidase plasmid (where CMV is cytomegalovirus) is used for normalization of experimental values.
The cells were replated, typically in 24 well plates, so that at the time of transfection the cells are 50-70% confluent.
Briefly, per well in a 24 well plate, UASx4TKluc (0.2 microg) Gal4-PPARgammaLBD (or pM-hPPARgamma-LBD; 0.1 microg) and CMV-beta-galactosidase (0.05 microg) in 30 μL DMEM (free of serum and antibiotics) is mixed with 30 microL DMEM (free of serum and antibiotics) containing 1 microL metafectenein. The mixture is incubated at room temperature for 20 min to allow formation of nucleic acid-lipid complexes and then approximately 60 microL is added to each well containing the 50-60% confluent cells. […] Cells were harvested after 12-24 hours and luciferase and beta-galactosidase activities were measured according to standard protocols.
“−” means that testing was not performed.

mPPARalphaLBD = target: T1, mPPARalphaLBD (Mus musculus, UniProt P23204); assay: PPARalpha transactivation assay (mPPARalphaLBD); type: cell-based
T1 construct: expressed in transfected cells
T1 sequence (P23204 239-466 limits assumed): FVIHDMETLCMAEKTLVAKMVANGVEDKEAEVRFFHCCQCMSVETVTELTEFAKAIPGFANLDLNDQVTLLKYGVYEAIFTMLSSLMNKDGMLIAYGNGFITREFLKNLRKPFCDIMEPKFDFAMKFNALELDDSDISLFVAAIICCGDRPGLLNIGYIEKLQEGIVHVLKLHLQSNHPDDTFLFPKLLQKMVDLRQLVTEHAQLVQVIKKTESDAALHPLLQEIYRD
Protocol: This example describes a transactivation assay for determining PPARalpha modulating activity.
DPD and other ligands are tested for their ability to transactivate PPAR alpha essentially as described in Example 1.

| Structure (SMILES) | Adip. (3T3-L1 / MEFs) | further results |
| --- | --- | --- |
| O=C(O)CC/C=C\C[C@@H]1COC(c2cccc3ccccc23)O[C@@H]1c1ccccc1O (stereo partly drawn) [compound 9] | 0 |  |
| O=C(O)CC/C=C\C[C@@H]1COC(c2cccc(Cl)c2Cl)O[C@@H]1c1ccccc1O (stereo partly drawn) [compound 2] | 0 |  |
| COc1ccccc1[C@H]1OC[C@@H](C/C=C\CCC(=O)O)[C@@H](c2ccccc2O)O1 [compound 18] | −1 |  |
| O=C(O)CCC/C=C\C[C@@H]1CO[C@H](c2ccccc2Cl)O[C@@H]1c1ccccc1O [compound 23] | +1 |  |
| COc1ccccc1[C@H]1OC(C)(C)OC[C@H]1C/C=C\CCCCC(=O)O [compound 37] | 0 | PPAR [1]: Inactive |
| CC1(C)OC[C@@H](C/C=C\CCCCC(=O)O)[C@@H](c2ccccc2O)O1 [compound 36] |  | PPAR [1]: Inactive |
| COc1cccc([C@H]2OC[C@@H](C/C=C\CCC(=O)O)[C@@H](c3ccccc3O)O2)c1OC (mixture of isomers) [compound 19] | 0 |  |
| O=C(O)CC/C=C\C[C@@H]1COC(c2ccccc2-c2ccccc2)O[C@@H]1c1ccccc1O (mixture of isomers) [compound 10] | 0 | PPAR gamma modulating activity, in words [1]: PPAR gamma antagonist; PPAR [1]: Antagonist |
| O=C(O)CCCCCCC[C@@H]1CO[C@H](c2ccccc2Cl)O[C@@H]1c1ccccc1O [compound 31] | 0 |  |
| O=C(O)CC/C=C\C[C@@H]1COC(c2cccc3c2OCO3)O[C@@H]1c1ccccc1O (mixture of isomers) [compound 5] | 0 | PPAR [1]: P− |
| CCCCCC1OC[C@@H](C/C=C\CCC(=O)O)[C@@H](c2ccccc2O)O1 (stereo partly drawn) [compound 11] | +1 |  |
| CC(C)[C@H]1OC[C@@H](C/C=C\CCC(=O)O)[C@@H](c2ccccc2O)O1 [compound 20] | 0 |  |
| COc1ccccc1[C@H]1O[C@@H](c2c(Cl)cccc2Cl)OC[C@H]1C/C=C\CCC(=O)O [compound 28] |  | PPAR [1]: Inactive |
| O=C(O)CC/C=C\C[C@@H]1COC(c2ccccc2F)O[C@@H]1c1ccccc1O (mixture of isomers) [compound 4] | 0 |  |
| O=C(O)CC/C=C\C[C@@H]1COC(c2ccccc2Cl)O[C@@H]1c1ccccc1O (stereo partly drawn) [compound 27] |  | PPAR [1]: Inactive |
| COc1ccc(Oc2ccccc2C2OC[C@@H](C/C=C\CCC(=O)O)[C@@H](c3ccccc3O)O2)cc1 (mixture of isomers) [compound 7] | 0 | PPAR gamma modulating activity, in words [1]: higher potency; induction of adipocyte differentiation (red staining), in words (3T3-L1 / MEFs): low or no adipocyte differentiation |
| O=C(O)CC/C=C\C[C@@H]1COC(c2coc3ccc(Cl)cc3c2=O)O[C@@H]1c1ccccc1O (stereo partly drawn) [compound 13] | −1 | PPAR gamma modulating activity, in words [1]: higher potency; induction of adipocyte differentiation (red staining), in words (3T3-L1 / MEFs): low or no adipocyte differentiation |
| O=C(O)CC/C=C\C[C@@H]1CO[C@H](c2ccccc2Cl)O[C@@H]1c1ccccc1O [compound 1] | 0 |  |
| CN(CCOc1ccc(CC2SC(=O)NC2=O)cc1)c1ccccn1 (stereo not drawn) [rosiglitazone, reference compound] |  | PPAR transactivation, fold higher than with DMSO alone ([1]; Gal4-PPARgammaLBD, DPD at 10 microM): over 40 fold |
| O=C(O)CC/C=C\C[C@@H]1COC2(CCCCC2)O[C@@H]1c1ccccc1O [compound 6] | 0 |  |
| C/C=C/CC1OC[C@@H](C/C=C\CCC(=O)O)[C@@H](c2ccccc2O)O1 (stereo partly drawn) [compound 12] | −1 |  |
| O=C(O)CC/C=C\C[C@@H]1CO[C@H](C2CCCCC2)O[C@@H]1c1ccccc1O [compound 21] | 0 |  |
| CC(C)(Sc1ccc(CCN(CCCCC2CCCCC2)C(=O)NC2CCCCC2)cc1)C(=O)O [GW7647, reference compound] |  | increase of PPAR alpha transactivation (mPPARalphaLBD): over 2 fold |
| O=C(O)CC/C=C\C[C@@H]1COC2(CCNCC2)O[C@@H]1c1ccccc1O [compound 8] | −1 | PPAR [1]: Boc derivative Inactive |
